Holding throughout (format): in vivo, mouse
The subject of data set [1] is Hyaluronan Synthase 1 (HAS-1). Put plainly: Hyaluronan Synthase 1 (HAS-1) ELISA on plasma, murine model of atherosclerosis, Example 2. The conditions noted are these: FIG. 10; high fat diet, PCB on Day 1 and 3, sacrificed at Day 4. The text has this: (§1) A novel model of atherosclerosis in mice was developed, using a high fat diet and administration of a polychlorinated biphenyl (3,3′,4,4′-Tetrachlorobiphenyl; PCB-77) that promotes both obesity and atherosclerosis and the additional oral administration of a bacteria responsible for tooth decay, Porphyromonas gingivalis 381 (ATCC 33277). The objective of this study was to examine the association of biomarkers with the murine model of atherosclerosis in mice treated with a strategy to protect and repair endothelial glycocalyx. Eighty-four (84) ten week old male C57/BI6 mice were obtained from Jackson Laboratories. Thirty-two mice were raised from 6 weeks on a regular diet and served as controls, and the remaining mice were raised on a 60% fat diet (D12451, DIO series diet, Opensource Diets). 3,3′,4,4′-Tetrachlorobiphenyl (PCB-77) was obtained from Neosyn Laboratories. The dry chemical was suspended in 15.22 ml of corn oil to deliver 200 μmol/kg in 0.2 ml by gavage per mouse.
(§2) Four test kits were used to analyze the collected plasma samples: Heparan Sulfate ELISA and Hyaluronan Synthase 1 (HAS-1) ELISA (Antibodies-Online), Total Plasminogen Activation Inhibitor-1 (PAI-1) ELISA (Molecular-Innovive) and Syndecan-1 (SDC1) ELISA (USCN, Houston, Tex.). […]

The subject of another data set is Heparan Sulfate (HS). Nature of the data set: Heparan Sulfate ELISA on plasma, murine model of atherosclerosis, Example 2. The note with it: FIG. 11; mice treated PCB-77 and Porphyromonas gingivalis.
Description: as §1, §2

For data set [2], the system named is C57/BI6 mice. Put plainly: Histology disease score (Oil Red O, plaque, fibrous tissue, inflammation), Example 1. The conditions noted are these: FIG. 9, gavage 150 μmol/kg, sacrifice days 10, 15, 20. The method, then: For the pilot study, 48 ten week old male C57/BI6 mice were obtained from Jackson Laboratories. Three mice were raised from 6 weeks on a regular diet and served as controls, and the remaining 45 were raised on a 60% fat diet (D12451, DIO series diet, Opensource Diets). For the bacterial dosage test, 16 ten week old male C57/BI6 mice were divided into 4 treatment groups and maintained on a normal diet.
3,3′,4,4′-Tetrachlorobiphenyl (PCB-77) was obtained from Neosyn Laboratories. 100 mg of the dry chemical was suspended in 15.22 ml of corn oil to deliver 150 μmol/kg in 0.2 ml per mouse. Porphyromonas gingivalis 381 (ATCC 33277) was obtained from ATCC. The bacteria were stored frozen prior to use. […] A microplate reader was used to measure the optical density at 600 nm to determine the concentration of bacteria. […]
The hearts were prepared as frozen sections. […] Multiple 10 μm sections at the level of the aortic sinus were analyzed for the presence of oil Red O lipid staining, plaque size, amount of fibrous tissue, and inflammation. The percentage of the lumen occupied by the first three features was calculated using Image Pro Plus. […] The level of inflammation in each section was scored on the following scale: 0=no inflammatory cells observed, 1=few macrophages with no giant cells, 2=foam cells present, 3=foam cells with cholesterol, 4=foam cells, giant cells, and cholesterol present. […]

The next data set relates to Syndecan-1 (SDC1). Nature of the data set: Syndecan-1 (SDC1) ELISA on plasma, murine model of atherosclerosis, Example 2. The conditions noted are these: FIG. 13; mice treated PCB-77 and Porphyromonas gingivalis; high degree of variability.
Description: as §1, §2

For data set [3], the system named is C57/BI6 mice. Nature of the data set: Pathology of arterial wall, murine model of atherosclerosis, Example 2. The note with it: FIGS. 14A, 14B; positive control group (High fat diet, PCB).
Description: as §1
The mice were sacrificed on days 4, 11, or 18 according to the experimental plan (three each from groups). The animals were anesthetized by intraperitoneal injection of 90 mg/kg Ketamine and 8 mg/kg Xylazine, and Isoflurane gas anesthesia. Blood was collected by retro-orbital bleeding or from the heart and mixed with 50 mg/ml heparin to prevent clotting. […]

Each structure is given as a SMILES string.

Turning to `Clc1ccc(-c2ccc(Cl)c(Cl)c2)cc1Cl` [PCB-77, 3,3′,4,4′-Tetrachlorobiphenyl], the HAS-1 levels result in data set [1] is recorded as “highest HAS-1 levels”. The “Heparan Sulfate (HS) level” value with Heparan Sulfate (HS) is “elevation in HS”. In the data set with C57/BI6 mice [2], the “average disease scores for each group and time point (inflammation and plaque)” value was “most significant risk factor to producing inflammation and plaque”. Besides, the SDC-1 level entry in the data set on Syndecan-1 (SDC1) is given as “elevation in SDC-1”. Besides, the “pathology of arterial wall” value in the data set with C57/BI6 mice [3] is “presence of a pathology consistent with plaque”.

These data come from patent publication US11821905B2, “Biomarkers of vascular disease” (Arterez, Inc., priority 2015, dated 2023).
